Assay results: PubChem BioAssay (NCI)
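48-hour exposure; five concentrations; linearly interpolated endpoints. Definition used: TGI = concentration required for complete inhibition of growth.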

What was measured:
Test in all cases: growth of human tumour cells (NCI), 48 h
786-0 renal = tested on: 786-0 renal
A498 renal = tested on: A498 renal
A549 NSCLC = tested on: A549 NSCLC
ACHN renal = tested on: ACHN renal
BT-549 breast = tested on: BT-549 breast
CAKI-1 renal = tested on: CAKI-1 renal
CCRF-CEM leukemia = tested on: CCRF-CEM leukemia
COLO 205 colon = tested on: COLO 205 colon
DU-145 prostate = tested on: DU-145 prostate
EKVX NSCLC = tested on: EKVX NSCLC
HCC-2998 colon = tested on: HCC-2998 colon
HCT-116 colon = tested on: HCT-116 colon
HCT-15 colon = tested on: HCT-15 colon
HOP-62 NSCLC = tested on: HOP-62 NSCLC
HOP-92 NSCLC = tested on: HOP-92 NSCLC
HS 578T breast = tested on: HS 578T breast
IGROV1 ovarian = tested on: IGROV1 ovarian
KM12 colon = tested on: KM12 colon
LOX IMVI melanoma = tested on: LOX IMVI melanoma
M14 melanoma = tested on: M14 melanoma
MALME-3M melanoma = tested on: MALME-3M melanoma
MCF7 breast = tested on: MCF7 breast
MDA-MB-231 breast = tested on: MDA-MB-231 breast
MDA-MB-435 = tested on: MDA-MB-435
MDA-N = tested on: MDA-N
MOLT-4 leukemia = tested on: MOLT-4 leukemia
NCI-H226 lung = tested on: NCI-H226 lung
NCI-H23 lung = tested on: NCI-H23 lung
NCI/ADR-RES ovarian = tested on: NCI/ADR-RES ovarian
OVCAR-3 ovarian = tested on: OVCAR-3 ovarian
OVCAR-4 ovarian = tested on: OVCAR-4 ovarian
OVCAR-5 ovarian = tested on: OVCAR-5 ovarian
OVCAR-8 ovarian = tested on: OVCAR-8 ovarian
PC-3 prostate = tested on: PC-3 prostate
RPMI-8226 leukemia = tested on: RPMI-8226 leukemia
RXF 393 renal = tested on: RXF 393 renal
SF-268 CNS = tested on: SF-268 CNS
SF-295 CNS = tested on: SF-295 CNS
SF-539 CNS = tested on: SF-539 CNS
SK-MEL-2 melanoma = tested on: SK-MEL-2 melanoma
SK-MEL-28 melanoma = tested on: SK-MEL-28 melanoma
SK-MEL-5 melanoma = tested on: SK-MEL-5 melanoma
SK-OV-3 ovarian = tested on: SK-OV-3 ovarian
SN12C renal = tested on: SN12C renal
SNB-19 CNS = tested on: SNB-19 CNS
SNB-75 CNS = tested on: SNB-75 CNS
SW-620 colon = tested on: SW-620 colon
T-47D breast = tested on: T-47D breast
TK-10 renal = tested on: TK-10 renal
U251 CNS = tested on: U251 CNS
UACC-257 melanoma = tested on: UACC-257 melanoma
UACC-62 melanoma = tested on: UACC-62 melanoma
UO-31 renal = tested on: UO-31 renal
HL-60(TB) leukemia = tested on: HL-60(TB) leukemia
HT29 colon = tested on: HT29 colon
K-562 leukemia = tested on: K-562 leukemia
NCI-H460 lung = tested on: NCI-H460 lung
NCI-H522 lung = tested on: NCI-H522 lung
SR leukemia = tested on: SR leukemia

CCC(C)[C@H](NC(=O)[C@H](Cc1ccccc1)NC(=O)N(CC)c1ccccc1)C(=O)N[C@@H](CC(C)C)C(=O)OC (stereo not given in full)
TGI (786-0 renal): > 100 µM
TGI (A498 renal): > 100 µM
TGI (A549 NSCLC): > 100 µM
TGI (ACHN renal): 72.7 µM
TGI (BT-549 breast): > 100 µM
TGI (CAKI-1 renal): > 100 µM
TGI (CCRF-CEM leukemia): 66.7 µM
TGI (COLO 205 colon): > 100 µM
TGI (DU-145 prostate): > 100 µM
TGI (EKVX NSCLC): > 100 µM
TGI (HCC-2998 colon): > 100 µM
TGI (HCT-116 colon): > 100 µM
TGI (HCT-15 colon): > 100 µM
TGI (HOP-62 NSCLC): > 100 µM
TGI (HOP-92 NSCLC): > 100 µM
TGI (HS 578T breast): > 100 µM
TGI (IGROV1 ovarian): 61.5 µM
TGI (KM12 colon): 61.3 µM
TGI (LOX IMVI melanoma): > 100 µM
TGI (M14 melanoma): > 100 µM
TGI (MALME-3M melanoma): > 100 µM
TGI (MCF7 breast): > 100 µM
TGI (MDA-MB-231 breast): > 100 µM
TGI (MDA-MB-435): > 100 µM
TGI (MDA-N): > 100 µM
TGI (MOLT-4 leukemia): 39.7 µM
TGI (NCI-H226 lung): 46.2 µM
TGI (NCI-H23 lung): > 100 µM
TGI (NCI/ADR-RES ovarian): > 100 µM
TGI (OVCAR-3 ovarian): > 100 µM
TGI (OVCAR-4 ovarian): > 100 µM
TGI (OVCAR-5 ovarian): > 100 µM
TGI (OVCAR-8 ovarian): > 100 µM
TGI (PC-3 prostate): > 100 µM
TGI (RPMI-8226 leukemia): 38 µM
TGI (RXF 393 renal): > 100 µM
TGI (SF-268 CNS): > 100 µM
TGI (SF-295 CNS): > 100 µM
TGI (SF-539 CNS): 93.8 µM
TGI (SK-MEL-2 melanoma): > 100 µM
TGI (SK-MEL-28 melanoma): > 100 µM
TGI (SK-MEL-5 melanoma): 59.8 µM
TGI (SK-OV-3 ovarian): > 100 µM
TGI (SN12C renal): > 100 µM
TGI (SNB-19 CNS): > 100 µM
TGI (SNB-75 CNS): > 100 µM
TGI (SW-620 colon): > 100 µM
TGI (T-47D breast): > 100 µM
TGI (TK-10 renal): > 100 µM
TGI (U251 CNS): > 100 µM
TGI (UACC-257 melanoma): 74.8 µM
TGI (UACC-62 melanoma): > 100 µM
TGI (UO-31 renal): 67.2 µM

CCOC(=O)c1ccc(N=NN(C)C(=O)C(C)N)cc1 (stereo not given)
TGI (786-0 renal): > 100 µM
TGI (ACHN renal): > 100 µM
TGI (BT-549 breast): > 100 µM
TGI (CAKI-1 renal): > 100 µM
TGI (CCRF-CEM leukemia): > 100 µM
TGI (COLO 205 colon): > 100 µM
TGI (DU-145 prostate): > 100 µM
TGI (EKVX NSCLC): > 100 µM
TGI (HCC-2998 colon): > 100 µM
TGI (HCT-116 colon): > 100 µM
TGI (HCT-15 colon): > 100 µM
TGI (HL-60(TB) leukemia): > 100 µM
TGI (HOP-62 NSCLC): > 100 µM
TGI (HOP-92 NSCLC): > 100 µM
TGI (HT29 colon): > 100 µM
TGI (IGROV1 ovarian): > 100 µM
TGI (K-562 leukemia): > 100 µM
TGI (KM12 colon): > 100 µM
TGI (LOX IMVI melanoma): > 100 µM
TGI (M14 melanoma): > 100 µM
TGI (MALME-3M melanoma): > 100 µM
TGI (MCF7 breast): > 100 µM
TGI (MDA-MB-231 breast): > 100 µM
TGI (MDA-MB-435): > 100 µM
TGI (MDA-N): > 100 µM
TGI (MOLT-4 leukemia): > 100 µM
TGI (NCI-H226 lung): > 100 µM
TGI (NCI-H23 lung): > 100 µM
TGI (NCI-H460 lung): > 100 µM
TGI (NCI-H522 lung): > 100 µM
TGI (NCI/ADR-RES ovarian): > 100 µM
TGI (OVCAR-3 ovarian): > 100 µM
TGI (OVCAR-4 ovarian): > 100 µM
TGI (OVCAR-5 ovarian): > 100 µM
TGI (OVCAR-8 ovarian): > 100 µM
TGI (PC-3 prostate): > 100 µM
TGI (RPMI-8226 leukemia): > 100 µM
TGI (RXF 393 renal): > 100 µM
TGI (SF-268 CNS): > 100 µM
TGI (SF-295 CNS): > 100 µM
TGI (SF-539 CNS): > 100 µM
TGI (SK-MEL-2 melanoma): > 100 µM
TGI (SK-MEL-28 melanoma): > 100 µM
TGI (SK-MEL-5 melanoma): > 100 µM
TGI (SN12C renal): > 100 µM
TGI (SNB-19 CNS): > 100 µM
TGI (SNB-75 CNS): > 100 µM
TGI (SR leukemia): > 100 µM
TGI (SW-620 colon): > 100 µM
TGI (T-47D breast): > 100 µM
TGI (TK-10 renal): > 100 µM
TGI (U251 CNS): > 100 µM
TGI (UACC-257 melanoma): > 100 µM
TGI (UACC-62 melanoma): > 100 µM
TGI (UO-31 renal): > 100 µM

CN1C(=O)c2c(ccc3c2OCO3)C2C(O)Cc3cc4c(cc3C21)OCO4 (stereo not given)
TGI (786-0 renal): 37.3 µM
TGI (A498 renal): 9.29 µM
TGI (A549 NSCLC): > 100 µM
TGI (ACHN renal): > 100 µM
TGI (BT-549 breast): > 100 µM
TGI (CAKI-1 renal): 81.7 µM
TGI (CCRF-CEM leukemia): 9.74 µM
TGI (COLO 205 colon): 14.4 µM
TGI (DU-145 prostate): 43.1 µM
TGI (EKVX NSCLC): 60.9 µM
TGI (HCC-2998 colon): 64.4 µM
TGI (HCT-116 colon): > 100 µM
TGI (HCT-15 colon): 24.7 µM
TGI (HL-60(TB) leukemia): 6.3 µM
TGI (HOP-92 NSCLC): > 100 µM
TGI (HS 578T breast): > 100 µM
TGI (HT29 colon): 10.1 µM
TGI (IGROV1 ovarian): 8.85 µM
TGI (K-562 leukemia): 60.2 µM
TGI (KM12 colon): 21.6 µM
TGI (LOX IMVI melanoma): > 100 µM
TGI (M14 melanoma): > 100 µM
TGI (MCF7 breast): > 100 µM
TGI (MDA-MB-231 breast): 18.3 µM
TGI (MDA-N): 5.56 µM
TGI (MOLT-4 leukemia): 20 µM
TGI (NCI-H226 lung): 5.93 µM
TGI (NCI-H23 lung): > 100 µM
TGI (NCI-H460 lung): > 100 µM
TGI (NCI-H522 lung): 9.28 µM
TGI (NCI/ADR-RES ovarian): 8.28 µM
TGI (OVCAR-3 ovarian): > 100 µM
TGI (OVCAR-4 ovarian): > 100 µM
TGI (OVCAR-5 ovarian): > 100 µM
TGI (OVCAR-8 ovarian): 22.9 µM
TGI (PC-3 prostate): > 100 µM
TGI (RPMI-8226 leukemia): > 100 µM
TGI (SF-268 CNS): > 100 µM
TGI (SF-295 CNS): 4.63 µM
TGI (SF-539 CNS): 16.8 µM
TGI (SK-MEL-2 melanoma): 8.44 µM
TGI (SK-MEL-28 melanoma): > 100 µM
TGI (SK-MEL-5 melanoma): > 100 µM
TGI (SK-OV-3 ovarian): 8.37 µM
TGI (SN12C renal): > 100 µM
TGI (SNB-19 CNS): > 100 µM
TGI (SNB-75 CNS): 5.13 µM
TGI (SW-620 colon): > 100 µM
TGI (TK-10 renal): > 100 µM
TGI (U251 CNS): > 100 µM
TGI (UACC-62 melanoma): > 100 µM
TGI (UO-31 renal): > 100 µM
